Measurements as given in US8143373B2, “Carbohydrate-containing pan cancer marker” (Vancouver Biotech Ltd., priority 2007, dated 2012).
Several values for one entry are separate records, joined by “and”; a condition that tells them apart may be missing. Equal values may be shown once.

What was measured:
[1] = tested on: OC-3-VGH ovarian cancer cells tumors; assay: Tumor growth in nude mice implanted subcutaneously with cancer cells; assay type: in vivo; details: for Percent (average tumor weight, negative control = 100) / Average of Tumor Weight: n=4; for Body Weight (individual mouse) / Tumor Weight (individual mouse): mice #1-4
Description: Groups of four nude mice were implanted subcutaneously with 2×10^6 cells in 0.2 ml per mouse at sites near the breast for a growth period of 2-3 weeks. Treatments were performed after visible apparent growth of tumors. The radioactive labeling of the mAb was at a specific radioactivity of 12.5 μCi/mg.
The mice were sacrificed on day 16 after treating with antibody, and the size of tumors in each mouse was determined by weight together with the body weight.

[2] = tested on: CA215 antigen on OC-3-VGH cancer cells; assay: Direct binding enzyme immunoassay of RP215-HRP to OC-3-VGH cancer cell-coated wells (NaIO4 treatment, goat anti-human IgG competition); details: for Optical Density at 450 nm / percent maximum binding: RP215-HRP 10 ug/ml + normal mouse IgG 10 ug/ml
Description: PBS-washed OC-3-VGH cancer cells (conc. 1×10^6 cells/ml) were incubated with 100 mM NaIO4 for 30 minutes, the cells were washed with PBS containing 0.5% BSA, and then dried on microwells at 1×10^4 cells/well. The cell-coated microwells were then blocked with 0.5% BSA in PBS and direct binding enzyme immunoassays using RP215 labeled with horseradish peroxidase (RP215-HRP) were performed at 37° C. for one hour followed by extensive washes and color development with TMB substrate. For comparison wells coated with cancer cells without NaIO4 treatments served as control.

[3] = tested on: CA215 present in OC-3-VGH cancer cells; assay: Secondary two-step ELISA, direct binding of anti-immunoglobulin antibodies to CA215 in OC-3-VGH cancer cells; parameters: species or system human; details: 1.125 ug/ml primary antibody; ODn = corresponding normal mouse IgG concentration
Description: In this case the experiment was conducted as a secondary two-step ELISA with primary antibodies incubated with sample overnight at room temperature, followed by goat antibody Anti-Mouse IgG-ALP, for 1 hour at 37° C. ODs is the OD value of sample and ODn is the OD value of corresponding normal mouse IgG concentration.

[4] = tested on: OC-3-VGH ovarian cancer cells; assay: Growth of OC-3-VGH cell cultures in vitro; assay type: cell-based, human; details: addition to cell cultures of OC-3-VGH ovarian cancer cells
Description: Cell culture growth was also not inhibited either by human IgG or goat anti-human IgG in vitro up to a concentration of 200 μg/ml in the cell culture.

[5] = tested on: CA215; assay: Sandwich EIA with coated RP215 forms, OC-3-VGH shed medium and HRP-labeled RP215; assay type: binding, human; details: for Relative Signal Intensity in Sandwich EIA: antibody coated at 5 μg/ml, 450 nm
Description: Each was coated separately at 5 μg/ml overnight in microwells. The microwells were treated with concentrated cell culture shed medium of OC-3-VGH cells (to supply CA215) and then with HRP-labeled RP215 as a detection antibody. The detection antibody was incubated with each well for 60 min. at 37° C. After 30 min, TMB substrate was added for 20 min. of color development and, after stopping the reaction, the intensity determined at 450 nm in an ELISA reader. In some cases, 10 μg/ml human IgG was added to the wells, but this had no evident effect on the signal intensity.

[6] = tested on: Goat Anti-mouse IgG; assay: Binding of well-coated antibodies to detecting antibody; details: for Relative Intensity: detecting antibody Goat Anti-mouse IgG, RP215 adjusted to 100%
Source text: In row 1, the results were normalized to 100% for the interaction between RP215 and goat anti-mouse IgG. As shown in the first row, goat anti-mouse IgG bound comparatively poorly to the humanized or chimeric human forms.

[7] = tested on: Goat Anti-human IgG; assay: as above; details: for Relative Intensity: detecting antibody Goat Anti-human IgG, hRP215 adjusted to 100%
Source text: In row 2, when goat anti-human IgG is used as a detector, and humanized RP215 was set at 100%, decreased binding was shown for human IgG, and very reduced binding for the chimeric or murine RP215.

[8] = tested on: Goat Anti-human IgFc; assay: as above
[9] = tested on: Goat Anti-human IgFab; assay: as above
[10] = 60 mg/Kg, sacrificed day 16 after treating
[11] = high dose 10 mg/Kg (I131-labeled: + 125 μCi), day 16, 10 mg/kg, in g (unit assumed)
[12] = low dose 2 mg/Kg (I131-labeled: + 25 μCi), day 16, 2 mg/kg, in g (unit assumed)

O=P1(N(CCCl)CCCl)NCCCO1 (centres unmarked) [Cyclophosphonamide, reference compound]
Percent (average tumor weight, negative control = 100) ([1]; 60 mg/Kg, day 16): 73.2%
Average of Tumor Weight ([1]; 60 mg/Kg, day 16, in g (unit assumed)): 0.09575
Body Weight (individual mouse) [1, 10]: 21.18 (2×) and 21.42 and 23.37
Tumor Weight (individual mouse) [1, 10]: 0.098 (2×) and 0.096 and 0.091

RP215-HRP: RP215 labeled with horseradish peroxidase
binding between RP215-HRP and cancer cell-coated wells treated with periodate (in words) ([2]; 100 mM NaIO4 for 30 minutes vs untreated cells): drastically reduced
Optical Density at 450 nm ([2]; with NaIO4 treatment): 0.797
percent maximum binding ([2]; with NaIO4 treatment): 37%
Optical Density at 450 nm ([2]; without NaIO4 treatment): 2.153
percent maximum binding ([2]; without NaIO4 treatment): 100%

RP215: monoclonal antibody (mouse IgG) to tumor-associated antigen CA215; hybridoma deposited as ATCC HB10095
ODs405/ODn405 [3]: 11.6
effect on growth of cell cultures (in words) [4]: no effect on growth
Body Weight (individual mouse) [1, 11]: 21.43 and 23.05 and 22.15 and 23.56
Tumor Weight (individual mouse) [1, 11]: 0.088 and 0.077 and 0.095 and 0.086
Percent (average tumor weight, negative control = 100) ([1]; high dose 10 mg/Kg (I131-labeled: + 125 μCi), day 16): 66.2%
Average of Tumor Weight ([1]; high dose 10 mg/Kg (I131-labeled: + 125 μCi), day 16, in g (unit assumed)): 0.0865
Body Weight (individual mouse) [1, 12]: 21.76 and 20.57 and 21.98 and 22.64
Tumor Weight (individual mouse) [1, 12]: 0.103 and 0.122 and 0.080 and 0.104
Percent (average tumor weight, negative control = 100) ([1]; low dose 2 mg/Kg (I131-labeled: + 25 μCi), day 16): 78.2%
Average of Tumor Weight ([1]; low dose 2 mg/Kg (I131-labeled: + 25 μCi), day 16, in g (unit assumed)): 0.1022
tumor growth in vivo (in words) ([1]; nude mice): successful in inhibiting tumor growth in vivo
Relative Signal Intensity in Sandwich EIA ([5]; 10 μg/ml Human IgG): 100%
Relative Signal Intensity in Sandwich EIA ([5]; No Human IgG): 100%
binding to goat anti-mouse IgG (in words) ([6]; antibody-coated microwells): strong binding
Relative Intensity [6]: 100%
binding to goat anti-human IgG (in words) ([7]; antibody-coated microwells, alkaline phosphatase-labeled goat anti-human IgG): no binding
Relative Intensity [7]: <0.5%
Relative Intensity [8]: <0.5%
Relative Intensity [9]: <1%

chRP215: chimeric RP215 mAb with human constant regions and the murine variable regions of RP215
Relative Signal Intensity in Sandwich EIA ([5]; 10 μg/ml Human IgG): 15.4%
Relative Signal Intensity in Sandwich EIA ([5]; No Human IgG): 14.5%
binding affinity to CA215 compared with RP215 (in words) ([5]; sandwich EIA): lower binding affinity
Relative Intensity [6]: ~7%
Relative Intensity [7]: ~10%
Relative Intensity [8]: 45%
Relative Intensity [9]: 10%
